These results are taken from patent publication US20070254837A1, “Treatment for Necrotizing Enterocolitis” (UNIVERSITY TECHNOLOGIES INTERNATIONAL INC., priority 2003, published 2007).

“Also recorded” adds a separate entry of the source.

Series [1] relates to necrotizing enterocolitis. To be noted: 152 infants, birthweight ≦1250 g, gestational age ≦32 weeks; dietary L-arginine supplementation; reduced from 27%; cited from earlier work.
Series [2] concerns neonatal piglet model of NEC. To be noted: infusion; cited from earlier work.
In series [3] the test system is neonatal rat model of necrotizing enterocolitis. Description: Neonatal rat model of necrotizing enterocolitis: histological evaluation of distal ileal tissue. The class given is in vivo. To be noted: for histological damage scores: distal ileal tissue, compared to NEC animals, FIG. 5; for appearance of ileal tissue sections (photomicrographs): distal ileum, hematoxylin and eosin, FIG. 4. The method, then:
These studies utilized a well-validated neonatal rat model of necrotizing enterocolitis (14). Briefly, neonatal Sprague-Dawley rats (Charles River Laboratories Inc., Wilmington, Mass.) were collected from their mothers immediately after birth, prior to suckling maternal milk. Animals were weighed and placed in infant incubators to control body temperature. Subsequently, rats were hand fed via the orogastric route 0.1 ml of rat milk substitute (RMS) consisting of prepared infant formula (Esbilac formula, Pet-Ag, New Hampshire, Ill.) plus or minus the therapeutic supplement every three hours. EGF (Austral Biologics, San Ramon, Calif.) was produced by genetically engineered yeast and purified by sequential chromatography and reverse phase high pressure liquid chromatography (HPLC) and determined to be >97% pure by N-terminal amino acid sequencing, amino acid composition, HPLC analysis and SDS gel electrophoresis. Arginine (L-arginine hydrochloride, crystalline, ICN Biomedicals Inc, Aurora, Ohio) was produced by a proprietary synthetic process. EGF (100 ng/ml) and L-arginine (1.35-2.7 mg/ml) were admininstered based on daily feed intake to achieve a dose of 1.5 mmol/kg/day of L-arginine (in standardized units these doses work out to ˜20 ug EGF/kg/day and ˜316 mg L-arginine/kg/day, for a ratio of about 1:472 500 mole/mole). The EGF and L-arginine were gently vortexed and thoroughly mixed into the Esbilac infant formula. After 48 hrs of feeding, volumes were advanced slowly to 0.3 ml as tolerated. […]
Body weights and tail lengths were recorded daily, and twice daily urination and defecation was induced by gentle stimulation of the anogenital region and stool collected for future analysis. The small intestine was visually assessed for clinical signs of NEC such as intestinal hemorrhage and discoloration, and ileal distension and stenosis. […] Histology was evaluated in a blinded manner and graded as follows: normal (0) showing no damage; mild (+1) showing slight submucosal and/or lamina propria separation (+2); moderate (+2) displaying moderate separation of the submucosa and/or lamina propria, and/or edema in the submucosal and muscular layers; severe (+3) showing severe separation of submucosa and/or lamina propria, and/or severe edema in the submucosal and muscular layers, and regional villus sloughing; necrosis (+4) displaying loss of villi and necrosis (14). The length of the remaining ileum was measured and the tissue homogenized in 2.5 mM ethylenediaminetetraacetic acid (EDTA), snap frozen in liquid nitrogen, and stored at […] for later analysis of lactase activity (21) and ileal protein (5) and DNA (3 1) content.
(§1) Data are expressed as means ±SE. […]

Series [4] shares this test system. In words: Neonatal rat model of necrotizing enterocolitis: clinical (macroscopic) assessment of small intestine on autopsy. The class given is in vivo. To be noted: for discoloration (visual assessment of luminal blood) / stenosis: FIG. 3; for clinical scoring on autopsy (overall clinical appearance, pathology/damage scores): FIG. 2. How it is done: These studies utilized a well-validated neonatal rat model of necrotizing enterocolitis (14). Briefly, neonatal Sprague-Dawley rats (Charles River Laboratories Inc., Wilmington, Mass.) were collected from their mothers immediately after birth, prior to suckling maternal milk. Animals were weighed and placed in infant incubators to control body temperature. Subsequently, rats were hand fed via the orogastric route 0.1 ml of rat milk substitute (RMS) consisting of prepared infant formula (Esbilac formula, Pet-Ag, New Hampshire, Ill.) plus or minus the therapeutic supplement every three hours. EGF (Austral Biologics, San Ramon, Calif.) was produced by genetically engineered yeast and purified by sequential chromatography and reverse phase high pressure liquid chromatography (HPLC) and determined to be >97% pure by N-terminal amino acid sequencing, amino acid composition, HPLC analysis and SDS gel electrophoresis. Arginine (L-arginine hydrochloride, crystalline, ICN Biomedicals Inc, Aurora, Ohio) was produced by a proprietary synthetic process. EGF (100 ng/ml) and L-arginine (1.35-2.7 mg/ml) were admininstered based on daily feed intake to achieve a dose of 1.5 mmol/kg/day of L-arginine (in standardized units these doses work out to ˜20 ug EGF/kg/day and ˜316 mg L-arginine/kg/day, for a ratio of about 1:472 500 mole/mole). The EGF and L-arginine were gently vortexed and thoroughly mixed into the Esbilac infant formula. After 48 hrs of feeding, volumes were advanced slowly to 0.3 ml as tolerated. To induce clinical disease rats were stressed twice daily with asphyxia by breathing 100% nitrogen gas for 60 sec followed by cold stress at 4° C. for 10 min starting one hour after birth.
Six separate experimental groups were studied: unstressed rats artificially fed with EGF-free rat milk substitute (RMS) (Control, n=10); stressed rats that were dam-fed (Control (s), n=7); stressed rats artificially fed EGF-free RMS (NEC, n=10); stressed rats artificially fed RMS supplemented with 100 ng/ml recombinant human EGF (EGF-NEC, n=6); stressed rats artificially fed RMS supplemented with 1.5 mmol L-arginine/kg/day (ARG-NEC, n=6); and stressed rats artificially fed RMS supplemented with 100 ng/ml recombinant human EGF+1.5 mmol L-arginine/kg/day (EGF/ARG-NEC, n=8). Animals that developed abdominal distension, respiratory distress or lethargy during the 96-hour course of the experiment were terminated. After 96 hours all surviving animals were killed by decapitation and the small intestine removed for further analysis.
Body weights and tail lengths were recorded daily, and twice daily urination and defecation was induced by gentle stimulation of the anogenital region and stool collected for future analysis. The small intestine was visually assessed for clinical signs of NEC such as intestinal hemorrhage and discoloration, and ileal distension and stenosis. The small intestine was then divided into two halves and 2-3 cm of tissue from the distal segment (ileum) fixed, embedded in paraffin, and counterstained with hematoxylin and eosin for histological evaluation of NEC (14). Histology was evaluated in a blinded manner and graded as follows: normal (0) showing no damage; mild (+1) showing slight submucosal and/or lamina propria separation (+2); moderate (+2) displaying moderate separation of the submucosa and/or lamina propria, and/or edema in the submucosal and muscular layers; severe (+3) showing severe separation of submucosa and/or lamina propria, and/or severe edema in the submucosal and muscular layers, and regional villus sloughing; necrosis (+4) displaying loss of villi and necrosis (14). The length of the remaining ileum was measured and the tissue homogenized in 2.5 mM ethylenediaminetetraacetic acid (EDTA), snap frozen in liquid nitrogen, and stored at […] for later analysis of lactase activity (21) and ileal protein (5) and DNA (3 1) content.
as §1

The test system of the next series is lactase. Description: Neonatal rat model of necrotizing enterocolitis: total lactase activity in distal ileal tissue. The class given is in vivo. To be noted: compared to untreated NEC rats, FIG. 6. How it is done: These studies utilized a well-validated neonatal rat model of necrotizing enterocolitis (14). Briefly, neonatal Sprague-Dawley rats (Charles River Laboratories Inc., Wilmington, Mass.) were collected from their mothers immediately after birth, prior to suckling maternal milk. Animals were weighed and placed in infant incubators to control body temperature. Subsequently, rats were hand fed via the orogastric route 0.1 ml of rat milk substitute (RMS) consisting of prepared infant formula (Esbilac formula, Pet-Ag, New Hampshire, Ill.) plus or minus the therapeutic supplement every three hours. EGF (Austral Biologics, San Ramon, Calif.) was produced by genetically engineered yeast and purified by sequential chromatography and reverse phase high pressure liquid chromatography (HPLC) and determined to be >97% pure by N-terminal amino acid sequencing, amino acid composition, HPLC analysis and SDS gel electrophoresis. […]
Body weights and tail lengths were recorded daily, and twice daily urination and defecation was induced by gentle stimulation of the anogenital region and stool collected for future analysis. The small intestine was visually assessed for clinical signs of NEC such as intestinal hemorrhage and discoloration, and ileal distension and stenosis. […]
as §1

The subject of series [5] is necrotizing enterocolitis. To be noted: cited from earlier work.
The mark [6] stands for this setting: stressed neonatal rats, RMS with EGF 100 ng/ml and/or L-arginine 1.5 mmol/kg/day, 96 h, compared to untreated (NEC) group.

Take `N=C(N)NCCCC(N)C(=O)O` (stereo not shown) [Arg, 2-amino-5-guanidinovaleric acid]: in series [1], the “incidence of NEC” value is on record as 7%. In addition, the intestinal injury result in series [2] was “markedly reduced intestinal injury”. In series [3], the histological damage scores result was “did not differ” and the “appearance of ileal tissue sections (photomicrographs)” value was “Significant damage”. In series [4] (compared to controls), the “discoloration (visual assessment of luminal blood)” value (shortened to “discoloration”) is recorded as “significantly elevated” and the stenosis result is “significant stenosis”. Moreover, in series [4] (compared to untreated group), the “discoloration” value is on record as “significantly less discoloration than observed in the untreated group”. In series [4] (compared to untreated group, listed as L-arginine), the “discoloration” value is listed as “decreased the appearance of blood in the lumen”. Further, the “clinical scoring on autopsy (overall clinical appearance, pathology/damage scores)” value in series [4] (setting [6]) is given as “did not differ”. In addition, the total lactase activity result in the series on lactase is “did not alter the deficit in lactase activity”.
Turning to “EGF: 53-amino acid protein, human EGF sequence SEQ ID NO: 1, produced by genetically engineered yeast (Austral Biologics)”, the protective effect result in series [5] (EGF at 500 ng/ml) is listed as “protective effect”. Also, the clinical benefit result in series [5] (EGF at physiological concentration of 100 ng/ml) is recorded as “no significant clinical benefit”. Moreover, in series [3], the histological damage scores result was “did not differ” and the “appearance of ileal tissue sections (photomicrographs)” value is “Significant damage”. In addition, in series [4] (compared to controls), the “discoloration” value was “significantly elevated” and the stenosis result is recorded as “significant stenosis”. Also, the “clinical scoring on autopsy (overall clinical appearance, pathology/damage scores)” value in series [4] (same treatment, compared to control animals) is “still significantly increased over control animals”. Besides, the “clinical scoring on autopsy (overall clinical appearance, pathology/damage scores)” value in series [4] (setting [6]) is “significantly less than that observed in the untreated (NEC) group; also recorded: some protection against physical damage to the intestine”. Further, the total lactase activity entry with lactase was “did not alter the deficit in lactase activity”.
